# Measurements as given in patent US10745408B2, “Biologically active taxane analogs and methods of treatment by oral administration” (Tapestry Pharmaceuticals, Inc., priority 2007, dated 2020).
# Assays:
# FADU = assay: MTS proliferation assay, head/neck FADU; assay type: cell-based; details: Homo sapiens
# Experimental: (§1) MTS Proliferation Assay (Promega)
# (§2) Day 1: Cells were plated in appropriate growth medium at 5×10^3 per well in 100 ul in 96 well tissue culture plates, Falcon, one for each drug to be tested. Col 1 was blank; it contained no cells, just medium. The plates were incubated overnight at 37° C., 5% CO2 to allow attachment.
# (§3) Day 2: Added 120 ul growth medium in wells of 96-well “dilution plates” (one for each drug) and let sit in 37° C. incubator for about 1 hr.
# (§4) Thawed DMSO drug stocks (usually at 10 mM). Each drug was diluted 6 ul into a tube with 3 ml growth medium, to 20 μM.
# (§5) Aspirated medium from col 12 of a dilution plate; added 200-300 ul of 20 uM drug to wells of col 12. Made serial dilution down this 96-well plate: for a […] dilution pattern, moved 60 ul from col 12 to col 11, mixed 4-5 times (using 8 place multi-pipettor), moved 60 ul to col 10, etc. stopping at col 3.
# (§6) Moved 100 ul of medium+drug from dilution plate to a cell plate, i.e. col 1 from drug plate (blank=no cells) to col 1 of cell plate, etc. up to col 12. Col 2 contained cells with no drug. […]
# (§7) Day 4 or 5: Terminated the assay 48 to 72 hrs after drug addition. […] When the color turned dark in control wells (col 2), and was still light in col 12, the absorbance at 490 nm was read on a plate reader; the results were used to calculate IC50.
# DU145 = assay: MTS proliferation assay, prostate DU145; assay type: cell-based; details: Homo sapiens, DU-145
# Experimental: as §1, §2, §3, §4, §5, §6, §7
# MDA435s = assay: MTS proliferation assay, breast MDA435s; assay type: cell-based
# Experimental: as §1, §2, §3, §4, §5, §6, §7
# KBV (MDR+) = assay: MTS proliferation assay, head/neck KBV (MDR+); assay type: cell-based
# Experimental: as §1, §2, §3, §4, §5, §6, §7
# MESSA/Dox (MDR+) = assay: MTS proliferation assay, uterine MESSA/Dox (MDR+); assay type: cell-based; details: Homo sapiens, MES-SA
# Experimental: as §1, §2, §3, §4, §5, §6, §7
# PC-3 = assay: MTS proliferation assay, prostate PC-3; assay type: cell-based; details: Homo sapiens
# Experimental: as §1, §2, §3, §4, §5, §6, §7
# [1] = tested on: bovine microtubule protein; assay: In vitro ED50 MT polymerization study (DAPI fluorescence tubulin assay); assay type: biochemical; details: tubulin polymerization, 37° C. 30 minutes, maximum assembly = 25 μM paclitaxel
# Experimental: In Vitro ED50 MT Polymerization Study
# In this tubulin binding assay, microtubule protein (MTP) is used as a substrate. The assay contains bovine tubulin plus microtubule associated proteins (MAP). MTP is polymerized into microtubules in the presence of DAPI (4′,6′-diamidino-2-phenylindole), a fluorescent compound. DAPI binds to tubulin; when microtubules are formed and there is an enhancement of fluorescence. The microtubule formation is measured as a function of time, using a fluorescence plate reader. […] The method used is based on the procedure published by Donna M. Barron, et al, “Fluorescence-based high-throughput assay for antimicrotuble drugs” Analytical Biochemistry, 315: 49-56, 2003, which is incorporated by reference in its entirety. The excitation wavelength, in that assay, was set at 370 nm and the emission wavelength was set at 450 nm for the DAPI experiments.
# A Bio-Tek FL 600 microplate Fluorescence Reader was used to measure the relative level of fluorescence in the DAPI assay.
# Assays were conducted in 96-well plates. Each well contained a total volume of 0.1 mL consisting of PEM buffer (0.1 M Pipes, 1 mM EGTA, 1 mM MgCl2, pH 6.9), 0.2 mg bovine microtubule protein, and 10 μg of DAPI. […] The final DMSO concentration was 4%. The plates were incubated at 37° C. for 30 minutes and read in a fluorescence plate reader using an excitation wavelength of 360 nm and an emission wavelength of 460 nm. Fluorescence values were corrected for the sample without compound.
# Experiments were done twice in triplicate. Results were subsequently combined and fit to a non-linear regression program.
# [2] = Phase 1 Study S-(1)-01 plasma pharmacokinetics (weekly x3, 28-day cycle); assay type: in vivo, human; details: for half-life / AUC(0-t): human, plasma; for AUC(0-t): read-out: AUC0-24
# Excerpt: (§8) Both trials have enrolled patients with advanced solid tumors, non-Hodgkin's lymphoma or Hodgkin's lymphoma that have recurred or progressed following at least standard therapy; patients with malignancies for which there is no standard therapy; patients who are not candidates for standard therapy; or patients who have chosen not to pursue standard therapy. […] Study S-(1)-01 is currently being conducted in the United States. […] Study S-(1)-02 is currently being conducted in the United States and in Israel.
# (§9) Plasma pharmacokinetics of S-(1) were assessed following the first dose of S-(1) in both studies. Plasma samples were analyzed for S-(1) using a validated LC/MS-MS method.
# [3] = Phase 1 Study S-(1)-02 plasma pharmacokinetics (every 21 days); assay type: in vivo, human; details: for half-life / AUC(0-t): human, plasma; for AUC(0-t): read-out: AUC0-24
# Excerpt: as §8, §9
# [4] = Crossing of rat blood-brain barrier (FIG. 1); assay type: in vivo
# [5] = 14 mg/m^2 i.v., first dose, 50:50 Cremophor EL-P/ethanol formulation
# [6] = 28 mg/m^2 i.v., first dose, 50:50 Cremophor EL-P/ethanol formulation
# [7] = 56 mg/m^2 i.v., first dose, 50:50 Cremophor EL-P/ethanol formulation
# [8] = 85 mg/m^2 i.v., first dose, 50:50 Cremophor EL-P/ethanol formulation
# [9] = 127.5 mg/m^2 i.v., first dose, 50:50 Cremophor EL-P/ethanol formulation
# [10] = 56 mg/m^2 i.v., first dose, 15:85 Cremophor EL-P/ethanol formulation
# [11] = 84 mg/m^2 i.v., first dose, 15:85 Cremophor EL-P/ethanol formulation
# [12] = 126 mg/m^2 i.v., first dose, 15:85 Cremophor EL-P/ethanol formulation
# [13] = 185 mg/m^2 i.v., first dose, 15:85 Cremophor EL-P/ethanol formulation
structure (smiles),measurement,setting,value
C=C[C@H]1O[C@H]2C[C@H]3OC[C@@]3(OC(C)=O)[C@H]3[C@H](OC(=O)c4ccccc4)[C@]4(C(C)(C)O)CC(OC(=O)[C@H](O)C(CC(C)C)NC(=O)OC(C)(C)C)C(C)=C4[C@H](OC(C)=O)[C@H](O1)[C@]23C (stereo partly drawn) [S-(1)],IC50,FADU,21 nM
same,IC50,DU145,60 nM
same,IC50,MDA435s,10 nM
same,IC50,KBV (MDR+),553 nM
same,IC50,MESSA/Dox (MDR+),44.8 nM
same,IC50,PC-3,0.03 nM
same,EC50,[1],1580 ± 460 nM
same,Cl,[2]; [5],35.5 ± 29.7 L/hr/m^2
same,Vss,[2]; [5],23.2 ± 74.5 L/m^2
same,Cl,[2]; [6],43.5 ± 14.5 L/hr/m^2
same,Vss,[2]; [6],309 ± 161 L/m^2
same,Cl,[2]; [7],28.6 ± 13.2 L/hr/m^2
same,Vss,[2]; [7],216 ± 70 L/m^2
same,Cl,[2]; [8],16.6 ± 9.26 L/hr/m^2
same,Vss,[2]; [8],142 ± 75.6 L/m^2
same,Cl,[2]; [9],30.2±11.9 L/hr/m^2
same,Vss,[2]; [9],239 ± 116 L/m^2
same,t1/2,[2]; [9],6.59 ± 2.60 h
same,half-life,"[2]; intravenous, S-(1)-01 study, all dose groups, read-out: Plasma t1/2 values, range over dose groups",3.45 to 8.4 h
same,AUC(0-t),"[2]; iv, 14 mg/m2, 14 mg/m^2 i.v., first dose, 50:50 Cremophor EL-P/ethanol formulation",457 ± 297 ng·h/mL
same,half-life,"[2]; iv, 14 mg/m2, 14 mg/m^2 i.v., first dose, 50:50 Cremophor EL-P/ethanol formulation, read-out: t1/2 (converted)",8.4 ± 11.5 h
same,AUC(0-t),"[2]; iv, 28 mg/m2, 28 mg/m^2 i.v., first dose, 50:50 Cremophor EL-P/ethanol formulation",682 ± 322 ng·h/mL
same,half-life,"[2]; iv, 28 mg/m2, 28 mg/m^2 i.v., first dose, 50:50 Cremophor EL-P/ethanol formulation, read-out: t1/2 (converted)",3.45 ± 1.09 h
same,AUC(0-t),"[2]; iv, 56 mg/m2, 56 mg/m^2 i.v., first dose, 50:50 Cremophor EL-P/ethanol formulation",2070 ± 888 ng·h/mL
same,half-life,"[2]; iv, 56 mg/m2, 56 mg/m^2 i.v., first dose, 50:50 Cremophor EL-P/ethanol formulation, read-out: t1/2 (converted)",5.66 ± 3.63 h
same,AUC(0-t),"[2]; iv, 85 mg/m2, 85 mg/m^2 i.v., first dose, 50:50 Cremophor EL-P/ethanol formulation",5970 ± 3900 ng·h/mL
same,half-life,"[2]; iv, 85 mg/m2, 85 mg/m^2 i.v., first dose, 50:50 Cremophor EL-P/ethanol formulation, read-out: t1/2 (converted)",5.52 ± 5.26 h
same,AUC(0-t),"[2]; iv, 127.5 mg/m2, 127.5 mg/m^2 i.v., first dose, 50:50 Cremophor EL-P/ethanol formulation",4460 ± 2140 ng·h/mL
same,half-life,"[2]; iv, 127.5 mg/m2, 127.5 mg/m^2 i.v., first dose, 50:50 Cremophor EL-P/ethanol formulation, read-out: t1/2 (converted)",8.6 ± 1.3 h
same,Cl,[3]; [10],18.9 ± 9.53 L/hr/m^2
same,Vss,[3]; [10],232 ± 93.6 L/m^2
same,Cl,[3]; [11],15.4 L/hr/m^2
same,Vss,[3]; [11],300 L/m^2
same,Cl,[3]; [12],22.1 ± 11.2 L/hr/m^2
same,Vss,[3]; [12],166 ± 105 L/m^2
same,t1/2,[3]; [12],6.27 ± 3.64 h
same,Cl,[3]; [13],24.7 ± 12.2 L/hr/m^2
same,Vss,[3]; [13],215 ± 116 L/m^2
same,half-life,"[3]; intravenous, S-(1)-02 study, all dose groups, read-out: Plasma t1/2 values, range over dose groups",3.43 to 8.96 h
same,AUC(0-t),"[3]; iv, 56 mg/m2, 56 mg/m^2 i.v., first dose, 15:85 Cremophor EL-P/ethanol formulation",2530 ± 847 ng·h/mL
same,half-life,"[3]; iv, 56 mg/m2, 56 mg/m^2 i.v., first dose, 15:85 Cremophor EL-P/ethanol formulation, read-out: t1/2 (converted)",8.96 ± 7.09 h
same,AUC(0-t),"[3]; iv, 84 mg/m2, 84 mg/m^2 i.v., first dose, 15:85 Cremophor EL-P/ethanol formulation",3710 ng·h/mL
same,AUC(0-t),"[3]; iv, 126 mg/m2, 126 mg/m^2 i.v., first dose, 15:85 Cremophor EL-P/ethanol formulation",6110 ± 3030 ng·h/mL
same,half-life,"[3]; iv, 126 mg/m2, 126 mg/m^2 i.v., first dose, 15:85 Cremophor EL-P/ethanol formulation, read-out: t1/2 (converted)",10.6 ± 7.1 h
same,AUC(0-t),"[3]; iv, 185 mg/m2, 185 mg/m^2 i.v., first dose, 15:85 Cremophor EL-P/ethanol formulation",7260 ± 2620 ng·h/mL
same,half-life,"[3]; iv, 185 mg/m2, 185 mg/m^2 i.v., first dose, 15:85 Cremophor EL-P/ethanol formulation, read-out: t1/2 (converted)",3.43 ± 7.31 h
same,crossing of blood-brain barrier,[4],crosses rat blood-brain barrier
